# “Also recorded” adds a separate entry of the source.
# Test: Five-patient trial: tolerability of Xyrem
# Format: in vivo, human
# Method: Side effects were defined as either minor or serious (leading to hospitalization) using good clinical practice standards (www.who.int/medicines/library/par/ggcp/GCPGuidePharmatrials), and patients were asked to report side effects at each visit. After initial examination and videotaping, patients were given 1 gm of sodium oxybate by mouth (2 ml of the standard 0.5 gm/ml solution dissolved in 60 ml of water). One hour later, the senior author repeated the examination and videotaping. […] After two weeks taking 2 gm twice daily, the procedure was repeated after a 3 gm office dose, and finally two weeks after receiving 3 gm twice daily, the procedure was repeated after a 4 gm office dose. The maximum dose allowed in the trial was 4 gm twice daily. Patients and the senior author determined at each visit whether or not to proceed to the next dose level, based principally on their ability to tolerate the most recent dose regimen. After deciding on a maximum tolerated dose, patients received a dose in the office 0.5 gm less and the examination was videotaped.
# [1] = patient 4, listed as Xyrem ®, monosodium salt
smiles,measurement,setting,value
"O=C([O-])CCCO.[Na+] [GHB, 4-hydroxybutanoic acid monosodium salt]",common side effects not requiring dose reduction,five patients,Transient headache and dizziness
same,Dose @ D-L-SE,patient 1,3 gm
same,D-L-SE (dose-limiting side effect),"patient 1, disinhibition printed as mild, listed as Xyrem ®, monosodium salt",sedation and mild; also recorded: disinhibition
same,"SER SE (serious side effect, leading to hospitalization)","patient 1, judged not likely related to study drug",asthma
same,Dose @ D-L-SE,patient 2,3 gm
same,MILD SE,patient 2,Ø
same,SER SE,patient 2,Ø
same,D-L-SE (dose-limiting side effect),"patient 2, listed as Xyrem ®, monosodium salt",emotional lability
same,D-L-SE (dose-limiting side effect),patient 3,slight sedation
same,Dose @ D-L-SE,patient 3,4 gm
same,SER SE,patient 3,Ø
same,MILD SE,"patient 3, listed as Xyrem ®, monosodium salt",HA (1 gm); also recorded: dizzy (1 gm)
same,Dose @ D-L-SE,patient 4,2 gm
same,SER SE,patient 4,Ø
same,D-L-SE (dose-limiting side effect),[1],emotional lability
same,MILD SE,[1],HA (1 gm); also recorded: dizzy (2 gm)
same,D-L-SE (dose-limiting side effect),patient 5,slight sedation
same,Dose @ D-L-SE,patient 5,2 gm
same,MILD SE,patient 5,Ø
same,SER SE,patient 5,Ø
